Test results as given in PMC4220732 (Frontiers in Cellular and Infection Microbiology, 2014).

Target: T1, PefR (GAS PefR) (Streptococcus pyogenes, UniProt Q9A1K6)
T1 construct: gene SPy_0228; full ORF, N-terminal 6xHis tag (pRham N-His, pAJS11), tag cleavage not mentioned; expressed in E. coli (E. cloni 10G); as purified carries some heme
Experiment: UV-visible absorbance titration at […] nm, linear fit
Format: binding

T1 sequence (Q9A1K6 entry or part of it): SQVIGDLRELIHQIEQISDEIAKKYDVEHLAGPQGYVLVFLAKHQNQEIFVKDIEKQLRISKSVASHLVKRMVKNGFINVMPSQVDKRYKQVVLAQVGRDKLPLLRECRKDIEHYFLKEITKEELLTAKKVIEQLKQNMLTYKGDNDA

SMILES: C=CC1=C(C)c2cc3[nH]c(cc4nc(cc5[nH]c(cc1n2)c(C)c5CCC(=O)O)C(CCC(=O)O)=C4C)c(C)c3C=C [PPIX]
- Kd: 9 µM
